The record followed here is patent US12209102B2, “Heterocyclic compounds and uses thereof” (Kumquat Biosciences Inc., priority 2022, dated 2025).

One experiment addresses T1, K-Ras G12D (Homo sapiens, UniProt P01116, G12D).
T1 construct: made in house; host or cells: E. coli BL21 (DE3)
As to the kind of experiment: HTRF resonance energy transfer assay, K-Ras G12D / SOS1 interaction. It counts as biochemical. Conditions: HTRF assay of Example 5; read-out: IC50 against K-Ras G12D. Summed up:
(§1)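 GST-tagged K-Ras (WT or mutant) bound to anti-GST-Eu donor was mixed with His-hSOS1 bound to anti-6His-XL665 acceptor in ~5 mM HEPES pH 7.4, 150 mM NaCl, 1 mM DTT, 0.05% BSA, 0.0025% Igepal. HTRF (ex 337, em 620/665 nm) was read after ~10 min or longer. IC50 came from the 665/620 ratio over duplicates from 10 μM to 0.01 μM.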

The target of the next experiment is T2, K-Ras G12V (Homo sapiens, UniProt P01116, G12V).
T2 construct: made in house; host or cells: E. coli BL21 (DE3)
As to the kind of experiment: HTRF resonance energy transfer assay, K-Ras G12V / SOS1 interaction. Conditions: HTRF assay of Example 5; read-out: IC50 against K-Ras G12V. It counts as biochemical. Summed up:
as §1

For another experiment, the system named is SW620 cells. As to the kind of experiment: Ras cellular assay, growth of cells with K-Ras G12V mutation (CellTiter-Glo). It counts as cell-based. Conditions: Homo sapiens, SW-620; cell growth, Example 9, G12V mutation; read-out: IC50 against SW620 cells. Summed up:
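SW620 (K-Ras G12V) cells, e.g. 800/well in RPMI-1640 with 10% heat-inactivated FBS on standard or ultra-low attachment plates, were dosed the day after plating with e.g. a 10-point 3-fold series. Viability by CellTiter-Glo luminescence about 6 days later; IC50 from four-parameter fit.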

The test system of the next experiment is GP2D cells. Nature of the experiment: Ras cellular assay, growth of cells with K-Ras G12D mutation (CellTiter-Glo). It counts as cell-based. Conditions: cell growth, Example 9, G12D mutation, read-out: IC50 against GP2D cells.
For a further experiment, the target named is T3, K-Ras G12S (Homo sapiens, UniProt P01116, G12S).
T3 construct: made in house; host or cells: E. coli BL21 (DE3)
As to the kind of experiment: HTRF resonance energy transfer assay, K-Ras G12S / SOS1 interaction. It counts as biochemical. Conditions: HTRF assay of Example 5; read-out: IC50 against K-Ras G12S. Summed up: as §1

A further experiment has as its target T4, K-Ras WT (Homo sapiens, UniProt P01116).
T4 construct: made in house; host or cells: E. coli BL21 (DE3)
As to the kind of experiment: HTRF resonance energy transfer assay, K-Ras WT / SOS1 interaction. Type of experiment: biochemical. Conditions: HTRF assay of Example 5; read-out: IC50 against K-Ras WT. In a few lines: as §1

pIC50: −log10 of the molar value.

T4 sequence (P01116 1-188 isoform P01116-2): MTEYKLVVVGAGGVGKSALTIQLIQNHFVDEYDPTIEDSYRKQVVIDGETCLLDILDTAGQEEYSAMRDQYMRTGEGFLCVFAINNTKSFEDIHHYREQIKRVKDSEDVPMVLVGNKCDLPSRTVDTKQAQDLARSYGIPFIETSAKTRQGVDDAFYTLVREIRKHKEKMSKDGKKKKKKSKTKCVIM
T1 sequence (P01116 1-188 isoform P01116-2 G12D): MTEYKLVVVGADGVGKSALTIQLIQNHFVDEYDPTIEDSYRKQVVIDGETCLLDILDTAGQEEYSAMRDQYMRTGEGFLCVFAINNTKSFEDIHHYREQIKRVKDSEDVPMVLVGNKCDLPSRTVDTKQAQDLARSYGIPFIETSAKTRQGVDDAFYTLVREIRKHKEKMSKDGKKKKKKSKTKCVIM
T3 sequence (P01116 1-188 isoform P01116-2 G12S): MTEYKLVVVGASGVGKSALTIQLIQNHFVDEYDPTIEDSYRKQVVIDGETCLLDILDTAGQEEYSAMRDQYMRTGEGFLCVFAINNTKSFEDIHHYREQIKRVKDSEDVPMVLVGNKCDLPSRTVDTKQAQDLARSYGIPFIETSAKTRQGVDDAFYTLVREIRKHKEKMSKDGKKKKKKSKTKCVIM
T2 sequence (P01116 1-188 isoform P01116-2 G12V): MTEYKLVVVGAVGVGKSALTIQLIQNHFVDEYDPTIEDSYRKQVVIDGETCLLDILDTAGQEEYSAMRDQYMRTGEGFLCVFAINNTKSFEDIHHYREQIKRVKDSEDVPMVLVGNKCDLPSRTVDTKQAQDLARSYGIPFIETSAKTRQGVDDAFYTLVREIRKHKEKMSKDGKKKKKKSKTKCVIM

As for `N#Cc1c(N)sc2c(F)ccc(-c3c(Cl)c4c5c(nc(OC[C@@]67CCCN6C[C@H](F)C7)nc5c3F)N(CCC(F)F)[C@@H](C3CC3)CO4)c12` [Compound 668, 2-amino-4-((S)-8-chloro-5-cyclopropyl-4-(3,3-difluoropropyl)-10-fluoro-2-(((2R,7aS)-2-fluorotetrahydro-1H-pyrrolizin-7a(5H)-yl)methoxy)-5,6-dihydro-4H-[1,4]oxazepino[5,6,7-de]quinazolin-9-yl)-7-fluorobenzo[b]thiophene-3-carbonitrile], the negative logarithm of the IC50 (pIC50) on K-Ras G12D is above 7.00; on K-Ras G12V, above 7.00; with SW620 cells, above 5.30; with GP2D cells, above 6.30; at K-Ras G12S, above 7.00; on K-Ras WT it was above 7.00.

Regarding `N#Cc1c(N)sc2c(F)ccc(-c3c(Cl)c4c5c(nc(OC[C@@]67CCCN6C[C@H](F)C7)nc5c3F)N(CC(F)F)[C@@H](C(F)(F)F)CO4)c12` [Compound 672, 2-amino-4-((R)-8-chloro-4-(2,2-difluoroethyl)-10-fluoro-2-(((2R,7aS)-2-fluorotetrahydro-1H-pyrrolizin-7a(5H)-yl)methoxy)-5-(trifluoromethyl)-5,6-dihydro-4H-[1,4]oxazepino[5,6,7-de]quinazolin-9-yl)-7-fluorobenzo[b]thiophene-3-carbonitrile], the pIC50 on K-Ras G12D is above 7.00; at K-Ras G12V it was above 7.00; in the experiment on SW620 cells, above 5.30; in the experiment on GP2D cells it was above 6.30; at K-Ras G12S, above 7.00; at K-Ras WT it was above 7.00.

For the molecule `N#Cc1c(N)sc2c(F)ccc(-c3c(Cl)c4c5c(nc(OC[C@@]67CCCN6C[C@H](F)C7)nc5c3F)N(CC(F)F)[C@H](C3(C#N)CC3)CO4)c12` [Compound 722, 2-amino-4-((R)-8-chloro-5-(1-cyanocyclopropyl)-4-(2,2-difluoroethyl)-10-fluoro-2-(((2R,7aS)-2-fluorotetrahydro-1H-pyrrolizin-7a(5H)-yl)methoxy)-5,6-dihydro-4H-[1,4]oxazepino[5,6,7-de]quinazolin-9-yl)-7-fluorobenzo[b]thiophene-3-carbonitrile], the pIC50 on K-Ras G12D was above 7.00; at K-Ras G12V, above 7.00; in the experiment with SW620 cells, above 5.30; with GP2D cells, above 6.30; on K-Ras G12S, above 7.00; on K-Ras WT, above 7.00.

Turning to `C[C@H]1C(C(F)F)Oc2c(Cl)c(-c3ccc(F)c4sc(N)c(C#N)c34)c(F)c3nc(OC[C@@]45CCCN4C[C@H](F)C5)nc(c23)N1CC(F)F` (stereo partly drawn) [Compound 723, 2-amino-4-((5S)-8-chloro-4-(2,2-difluoroethyl)-6-(difluoromethyl)-10-fluoro-2-(((2R,7aS)-2-fluorotetrahydro-1H-pyrrolizin-7a(5H)-yl)methoxy)-5-methyl-5,6-dihydro-4H-[1,4]oxazepino[5,6,7-de]quinazolin-9-yl)-7-fluorobenzo[b]thiophene-3-carbonitrile], the pIC50 was above 7.00 on K-Ras G12D; above 7.00 on K-Ras G12V; above 5.30 in the experiment with SW620 cells; above 6.30 in the experiment on GP2D cells; above 7.00 on K-Ras G12S; above 7.00 on K-Ras WT.

On to `CC(O)C1COc2c(Cl)c(-c3ccc(F)c4sc(N)c(C#N)c34)c(F)c3nc(OC[C@@]45CCCN4C[C@H](F)C5)nc(c23)N1CCN(C)C` (stereo partly drawn) [Compound 745, 2-amino-4-(8-chloro-4-(2-(dimethylamino)ethyl)-10-fluoro-2-(((2R,7aS)-2-fluorotetrahydro-1H-pyrrolizin-7a(5H)-yl)methoxy)-5-(1-hydroxyethyl)-5,6-dihydro-4H-[1,4]oxazepino[5,6,7-de]quinazolin-9-yl)-7-fluorobenzo[b]thiophene-3-carbonitrile], for which the pIC50 on K-Ras G12D was above 7.00; on K-Ras G12V, above 7.00; in the experiment on SW620 cells, above 5.30; with GP2D cells, above 6.30; at K-Ras G12S, above 7.00; on K-Ras WT, above 7.00.

Regarding `N#Cc1c(N)sc2c(F)ccc(-c3c(Cl)c4c5c(nc(OC[C@@]67CCCN6C[C@H](F)C7)nc5c3F)N(CC(F)F)CCO4)c12` [Compound 748, 2-amino-4-(8-chloro-4-(2,2-difluoroethyl)-10-fluoro-2-(((2R,7aS)-2-fluorotetrahydro-1H-pyrrolizin-7a(5H)-yl)methoxy)-5,6-dihydro-4H-[1,4]oxazepino[5,6,7-de]quinazolin-9-yl)-7-fluorobenzo[b]thiophene-3-carbonitrile], the pIC50 was above 7.00 on K-Ras G12D; above 7.00 at K-Ras G12V; above 5.30 in the experiment on SW620 cells; above 6.30 with GP2D cells; above 7.00 at K-Ras G12S; above 7.00 at K-Ras WT.

Consider `C[C@H](O)[C@H]1COc2c(Cl)c(-c3ccc(F)c4sc(N)c(C#N)c34)c(F)c3nc(OC[C@@]45CCCN4C[C@H](F)C5)nc(c23)N1` [Compound 775, 2-amino-4-((5R)-8-chloro-10-fluoro-2-(((2R,7aS)-2-fluorotetrahydro-1H-pyrrolizin-7a(5H)-yl)methoxy)-5-((S)-1-hydroxyethyl)-5,6-dihydro-4H-[1,4]oxazepino[5,6,7-de]quinazolin-9-yl)-7-fluorobenzo[b]thiophene-3-carbonitrile], for which the pIC50 is above 7.00 at K-Ras G12D; above 7.00 at K-Ras G12V; above 5.30 in the experiment on SW620 cells; above 6.30 with GP2D cells; above 7.00 on K-Ras G12S; above 7.00 on K-Ras WT.

As to `N#Cc1c(N)sc2c(F)ccc(-c3c(Cl)c4c5c(nc(OC[C@@]67CCCN6C[C@H](F)C7)nc5c3F)N(C3CCCCC(O)C3)CCO4)c12` (stereo partly drawn) [Compound 795, 2-amino-4-(8-chloro-10-fluoro-2-(((2R,7aS)-2-fluorotetrahydro-1H-pyrrolizin-7a(5H)-yl)methoxy)-4-(3-hydroxycycloheptyl)-5,6-dihydro-4H-[1,4]oxazepino[5,6,7-de]quinazolin-9-yl)-7-fluorobenzo[b]thiophene-3-carbonitrile], the pIC50 at K-Ras G12D is above 7.00; at K-Ras G12V, above 7.00; in the experiment with SW620 cells it was above 5.30; in the experiment on GP2D cells, above 6.30; on K-Ras G12S, above 7.00; on K-Ras WT, above 7.00.

With `CC(C)(O)[C@H]1COc2c(Cl)c(-c3ccc(F)c4sc(N)c(C#N)c34)c(F)c3nc(OC[C@@]45CCCN4C[C@H](F)C5)nc(c23)N1` [Compound 815, 2-amino-4-((5R)-8-chloro-10-fluoro-2-(((2R,7aS)-2-fluorotetrahydro-1H-pyrrolizin-7a(5H)-yl)methoxy)-5-(2-hydroxypropan-2-yl)-5,6-dihydro-4H-[1,4]oxazepino[5,6,7-de]quinazolin-9-yl)-7-fluorobenzo[b]thiophene-3-carbonitrile], the pIC50 was above 7.00 at K-Ras G12D; above 7.00 on K-Ras G12V; above 5.30 in the experiment with SW620 cells; above 6.30 in the experiment with GP2D cells; above 7.00 at K-Ras G12S; above 7.00 on K-Ras WT.

For the molecule `N#Cc1c(N)sc2c(F)ccc(-c3c(Cl)c4c5c(nc(OC[C@@]67CCCN6C[C@H](F)C7)nc5c3F)N(CC3CC3C#N)[C@@H](C3(O)CC3)CO4)c12` (stereo partly drawn) [Compound 876, 2-amino-4-((5R)-8-chloro-4-((2-cyanocyclopropyl)methyl)-10-fluoro-2-(((2R,7aS)-2-fluorotetrahydro-1H-pyrrolizin-7a(5H)-yl)methoxy)-5-(1-hydroxycyclopropyl)-5,6-dihydro-4H-[1,4]oxazepino[5,6,7-de]quinazolin-9-yl)-7-fluorobenzo[b]thiophene-3-carbonitrile], the pIC50 at K-Ras G12D is above 7.00; on K-Ras G12V, above 7.00; in the experiment with SW620 cells, above 5.30; in the experiment on GP2D cells it was above 6.30; at K-Ras G12S it was above 7.00; on K-Ras WT, above 7.00.

As for `CN(C)CCN1c2nc(OC[C@@]34CCCN3C[C@H](F)C4)nc3c(F)c(-c4ccc(F)c5sc(N)c(C#N)c45)c(Cl)c(c23)OCC1CC#N` (stereo partly drawn) [Compound 885, 2-amino-4-(8-chloro-5-(cyanomethyl)-4-(2-(dimethylamino)ethyl)-10-fluoro-2-(((2R,7aS)-2-fluorotetrahydro-1H-pyrrolizin-7a(5H)-yl)methoxy)-5,6-dihydro-4H-[1,4]oxazepino[5,6,7-de]quinazolin-9-yl)-7-fluorobenzo[b]thiophene-3-carbonitrile], the pIC50 on K-Ras G12D was above 7.00; on K-Ras G12V it was above 7.00; in the experiment with SW620 cells, above 5.30; in the experiment with GP2D cells it was above 6.30; at K-Ras G12S, above 7.00; on K-Ras WT, above 7.00.
